From patent US11022604B2, “Dock derived compound against laminin receptor (37 LR) and uses thereof” (Purdue Research Foundation, priority 2017, dated 2021)

System: PC-3 cells
Assay: Wound healing (scratch) assay
Type: cell-based
Conditions: PC3, 50 uM, 48 h
Description: PC-3 cells were treated with 1, 10, 50 μM C3 or DMSO control after scratch formation and images were recorded using a brightfield microscope as described in the methods. […] Brightfield images were quantified using the t-scratch program and represented as % scratch closure after 48 hours of migration compared to a 0 hour control (n=9, mean±SEM). A one-way ANOVA test was used for statistical analysis (p<0.05).
Wound Healing Assay. PC-3 cells were seeded in 6 well plates at 3×10^5 cells per well in complete media until the cells reached confluency. Three horizontal and three vertical scratches were made in the confluent monolayers using a standard 200 μL pipette tip and cellular debris were removed by washing with 1×DPBS three times. 1×RPMI-1640 supplemented with C3 or DMSO was added and cells were incubated for 48 hours as described previously. […] Images were uploaded and analyzed for scratch geometry using the tscratch program (96). First, global thresholding was performed, then individual images were manually inspected for single image threshold adjustment and scratch geometries were quantified. […] The samples were analyzed using the Dionex UltiMate 3000 RSLC Nano System coupled to the Q Exactive™ HF Hybrid Quadrupole-Orbitrap MS (Thermo Scientific). […] Label free quantitation (LFQ) was performed using a minimum ratio count of 2 with fast LFQ. […]

`O=C(c1cc(F)cc2c1OCOC2)N1CCN(C2c3ccccc3-c3ccccc32)CC1` [Compound C3, [4-(9h-fluoren-9-yl)piperazino](6-fluoro-4h-1,3-benzodioxin-8-yl)methanone] was tested, and the “prevention of wound closure” value was about 70%.
